Experimental data from publication PMC6891570, “Yuccalechins A–C from the Yucca schidigera Roezl ex Ortgies Bark: Elucidation of the Relative and Absolute Configurations of Three New Spirobiflavonoids and Their Cholinesterase Inhibitory Activities” (Molecules, 2019).
Like-named read-outs stand apart in the source and are kept apart here.

Tests used:
[1] = target: T1, Electric eel AChE (Type-VI-S, EC 3.1.1.7) (Electrophorus electricus, UniProt O42275); assay: biochemical; type: biochemical; details: for inhibition at 1000 µM: at 1000 µM final concentration, six replicates, read-out: Inhibition (% ± S.D.) AChE
T1 construct: purchased Sigma, St. Louis, MO, USA Type-VI-S (catalogue number not given)
Protocol: (§1) The modified Ellman’s assay was used to measure the anti-acetylcholinesterase and anti-butyrylcholinesterase activities of 13, 26, and 29 [81, 82].
(§2) AChE and BChE inhibitory activities were measured by a slightly modified spectrophotometric method of Ellman et al.. Electric eel AChE (Type-VI-S, EC 3.1.1.7, Sigma, St. Louis, MO, USA) and horse serum BChE (EC 3.1.1.8, Sigma, St. Louis, MO, USA) were used as the enzyme sources, while acetylthiocholine iodide and butyrylthiocholine chloride (Sigma, St. Louis, MO, USA) were employed as the substrates of the reaction. 5,5′-Dithio-bis(2-nitrobenzoic) acid (DTNB, Sigma, St. Louis, MO, USA) was used to measure the anticholinesterase activity as the coloring agent. All reagents and conditions were exactly the same as described in our previous publication. Hydrolysis of acetylthiocholine iodide/butyrylthiocholine chloride was monitored by the formation of the yellow 5-thio-2-nitrobenzoate anion, as a result of the reaction of DTNB with thiocholines, catalyzed by enzymes at 412 nm utilizing a 96-well microplate reader (VersaMax Molecular Devices, USA). The measurements and calculations were evaluated by using Softmax PRO 4.3.2.LS software. The percent inhibitions of AChE/BChE were determined by comparing the reaction rates of the samples relative to a blank sample (ethanol in phosphate buffer pH = 8), using the formula (E − S)/E × 100, where E is the activity of enzyme without test sample, and S is the activity of the enzyme with the test sample. The experiments were conducted in six replicates. Galantamine (Sigma, St. Louis, MO, USA) was used as the reference.

[2] = target: T2, horse serum BChE (EC 3.1.1.8) (Equus caballus, UniProt P81908); assay: BChE inhibition, modified Ellman's spectrophotometric assay; type: biochemical; details: for inhibition at 1000 µM: read-out: Inhibition (% ± S.D.) BChE
T2 construct: horse serum BChE (EC 3.1.1.8, Sigma, St. Louis, MO, USA) were used as the enzyme sources; purchased Sigma, St. Louis, MO, USA; host or cells: horse serum
Protocol: as §1, §2

AChE/BChE = details: previous results; cited from earlier work
[3] = at 1000 µM final concentration, six replicates

T1 sequence (O42275 24-633): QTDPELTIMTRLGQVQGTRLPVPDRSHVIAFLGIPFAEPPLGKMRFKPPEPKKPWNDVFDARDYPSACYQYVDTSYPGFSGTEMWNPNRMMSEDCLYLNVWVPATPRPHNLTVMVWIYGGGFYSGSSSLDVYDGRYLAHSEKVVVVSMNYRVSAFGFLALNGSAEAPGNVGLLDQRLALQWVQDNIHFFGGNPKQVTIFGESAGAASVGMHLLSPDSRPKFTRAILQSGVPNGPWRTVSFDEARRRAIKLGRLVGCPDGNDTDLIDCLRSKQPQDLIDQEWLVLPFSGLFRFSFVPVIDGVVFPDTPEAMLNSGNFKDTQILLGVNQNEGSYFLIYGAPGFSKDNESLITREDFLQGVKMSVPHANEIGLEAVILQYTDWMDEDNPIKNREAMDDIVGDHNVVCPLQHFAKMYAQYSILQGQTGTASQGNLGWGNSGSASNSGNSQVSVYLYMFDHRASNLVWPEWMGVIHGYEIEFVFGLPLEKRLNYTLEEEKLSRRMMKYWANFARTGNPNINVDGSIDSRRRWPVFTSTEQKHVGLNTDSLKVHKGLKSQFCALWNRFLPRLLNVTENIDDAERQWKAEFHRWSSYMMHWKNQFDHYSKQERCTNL
T2 sequence (P81908 whole entry): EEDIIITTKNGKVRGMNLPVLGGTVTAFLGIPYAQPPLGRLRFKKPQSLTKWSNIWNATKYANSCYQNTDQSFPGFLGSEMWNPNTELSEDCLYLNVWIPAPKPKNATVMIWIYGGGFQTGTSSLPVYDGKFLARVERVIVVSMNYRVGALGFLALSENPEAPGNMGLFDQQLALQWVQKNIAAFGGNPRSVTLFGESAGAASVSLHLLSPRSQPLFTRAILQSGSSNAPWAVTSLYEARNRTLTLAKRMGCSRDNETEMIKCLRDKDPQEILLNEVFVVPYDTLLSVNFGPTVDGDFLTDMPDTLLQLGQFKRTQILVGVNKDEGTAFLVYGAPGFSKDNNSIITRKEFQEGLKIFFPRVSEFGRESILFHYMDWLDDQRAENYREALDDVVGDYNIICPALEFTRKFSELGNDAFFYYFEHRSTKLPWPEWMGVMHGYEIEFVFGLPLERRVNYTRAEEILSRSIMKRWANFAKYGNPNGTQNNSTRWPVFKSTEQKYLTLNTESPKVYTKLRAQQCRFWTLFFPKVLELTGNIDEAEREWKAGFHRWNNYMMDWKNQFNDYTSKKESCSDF

| SMILES | activity against AChE (in words) [1] | inhibition at 1000 µM [1] [%] | activity against BChE (in words) [2] | inhibition at 1000 µM [2, 3] [%] | cholinesterase inhibitory activity (in words) (AChE/BChE) | IC50 [1] [µM] | inhibition at 1000 µM [2] [%] |
| --- | --- | --- | --- | --- | --- | --- | --- |
| COc1c(O)cc(/C=C/c2cc(O)cc(O)c2)cc1O [Compound 13, trans-3,3′,5,5′-tetrahydroxy-4′-methoxystilbene] | almost inactive | 19.3 ± 3.03 | almost inactive | 25.2 ± 2.58 |  |  |  |
| Oc1ccc(/C=C/c2cc(O)cc(O)c2)cc1 [Compound 21, Trans-resveratrol] |  |  |  |  | very weak activity |  |  |
| O=C1Oc2cc(O)c3c(c2C12c1c(O)cc(O)cc1OC2c1ccc(O)cc1)OC(c1ccc(O)cc1)C(O)C3 [Compound 26, (2S,2′R,3R,3′S)-3′,4,5′,6-tetrahydroxy-2,2′-bis(4-hydroxyphenyl)-3′,4′-dihydro-2H,2′H,8′H-spiro[benzofuran-3,9′-furo.[2,3-h]chromen]-8′-one] | very low and selective activities | 80.5 ± 1.22 |  | 48.5 ± 2.29 |  | 294 |  |
| O=C1Oc2cc(O)c3c(c2[C@]12c1c(O)cc(O)cc1O[C@H]2c1ccc(O)cc1)O[C@H](c1ccc(O)cc1)[C@@H](O)C3 [Compound 29, (2S,2′R,3S,3′S)-3′,4,5′,6-tetrahydroxy-2,2′-bis(4-hydroxyphenyl)-3′,4′-dihydro-2H,2′H,8′H-spiro[benzofuran-3,9′-furo[2,3-h]chromen]-8′-one] | very low and selective activities | 52.5 ± 2.6 |  | 33.4 ± 1.37 |  | 655 |  |
| COc1ccc2c3c1O[C@H]1C[C@@H](O)C=C[C@@]31CCN(C)C2 [Reference, Galantamine HBr, reference compound] |  |  |  |  |  |  | 91.5 ± 1.63 |
| Oc1cc(O)cc(/C=C/c2ccc(O)c(O)c2)c1 [piceatannol, trans-3,3′,4′,5-tetrahydroxystilbene, reference compound] |  |  |  |  | much higher, selective against BChE, activity |  |  |
